Test results published in a melting point compilation (Tetko et al.; mined from patent text by program, amines drawn as free bases though some values may be those of a salt).

Row | SMILES | melting point
1 | O=C(O)c1ccc(CNS(=O)(=O)c2ccc(F)cc2)cc1 | 231 to 234 °C
2 | CCOC(=O)C1=C(C)N2CCCC2=C(C(C)=O)C1c1ccccc1C#N (stereo unspecified) | 167 °C
3 | CCOCc1nc2cnc(C)c(C)c2n1NC1CCOCC1 | 94 to 97 °C
4 | Cc1ccc2cc(NC(=O)c3cccc(CCc4cc(Nc5ccccc5)n[nH]4)c3)ccc2n1 | 98 to 102 °C
5 | CC(C)(CCCCCCC(=O)CCCCCCC(C)(C)C(=O)O)C(=O)O | 74.5 to 76 °C
6 | CCN(C(=O)c1ccccc1C(c1ccc(O)cc1)c1ccc(O)cc1)c1cccc(C)c1 | 218 to 220 °C
7 | CN(C)C(=O)N(C)c1nnc(S(=O)(=O)N(C)C)s1 | 101 to 103 °C
8 | CN1CC(C(=O)CN2CCCCC2)CC2c3cccc4[nH]cc(c34)CC21 (stereo unspecified) | 168 to 170 °C
9 | CN(C)CC(=O)Nc1ccc(Cl)c(C(=O)Nc2cccc3c4c(oc23)CCCC4)c1Cl | 207 °C
10 | O=C(Nc1ccc(-c2ccccc2)cc1)c1ccc2n1Cc1ccccc1N(C(=O)COc1ccc(Cl)cc1)C2 | 201 to 202 °C
11 | Nc1c(Oc2ccc(F)c(C(F)(F)F)c2)ncnc1Oc1ccc(F)c(C(F)(F)F)c1 | 104 to 105 °C
12 | COc1ccc(CC#N)cc1C(=O)NCc1ccc(C(F)(F)F)cc1 | 124 to 125 °C
13 | Cc1ccc2nc(SCC(=O)O)oc2c1 | 144 to 146 °C
14 | CCOc1ccc(C(=O)N(C)C)c2c1C(=O)N(Cn1nnn(-c3ccccc3)c1=S)S2(=O)=O | 172 to 173 °C
15 | Cc1noc(NS(=O)(=O)c2ccccc2-c2ccc(-c3ncco3)cc2Cn2c(=O)oc3ccccc32)c1C | 130 to 137 °C
16 | COc1ccc2c(c1)CCCC2(CO)NC(=O)c1c(F)cccc1F (stereo unspecified) | 174 to 175 °C
17 | CC(C)N1C(=O)c2cccc(Cl)c2N(C#N)S1(=O)=O | 123 to 124 °C
18 | CCCCCCCCc1nc2c(N)nc3ccccc3c2n1CCOCCCc1ccccc1 | 104 °C
19 | CCCCCCCCCC(=O)Nc1ccc(S(=O)(=O)Nc2nnc(C)s2)cc1 | 141 to 142 °C
20 | CS(=O)(=O)c1ccc(-c2[nH]c3ccc(Cl)cc3c2-c2ccccc2)cc1 | 281 to 283 °C
21 | Nc1ccc(Sc2c(NCC3CC3)cc(C(=O)O)cc2S(N)(=O)=O)cc1 | 221 to 223 °C
22 | Cc1[nH]cnc1CSCCNC(=N)NCCCc1c[nH]cn1 | 128 to 131 °C
23 | O=C1C=CC(c2ccccc2)(c2ccccc2)[C@@H]2CN(Cc3ccccc3)C[C@H]12 (racemic) | 132 °C
24 | O=C1c2ccccc2-c2c1c1ccccc1c(=O)n2CCCNS(=O)(=O)c1ccc(Br)cc1 | 241 to 243 °C

Row | SMILES | melting point
25 | CNc1ccc([N+](=O)[O-])cc1N | 171 to 173 °C
26 | CC(=O)OCc1ccc2oc(=O)c(C(=O)Oc3cc(Cl)ccc3Cl)cc2c1 | 168 to 171 °C
27 | CCCCc1nc2c(c(C)c(C)n3nnnc23)n1CC(C)(C)NC(=O)c1ccccc1 | 201 to 204 °C
28 | CSc1ccc(Nc2nc(=O)cc(N)n2-c2ccc(C)cc2)cc1 | 231 to 234 °C
29 | CCn1ncnc1COc1nc2c(-c3ccccc3)nnc(C)n2c1C1CCCC1 | 94 to 96 °C
30 | CCCNC(=O)Nc1cc(C(C)(C)C)c2c(c1)C(C)(C)CO2 | 193 to 194 °C
31 | CCCCc1c(CO)nc2ccccc2c1OCc1ccc(-c2ccccc2C(=O)O)cc1 | 174 °C
32 | Cc1c(C=CCN)[nH]c(=O)c2c1ccc1nc(Nc3c(Cl)cccc3Cl)n(C)c12 | > 300 °C
33 | COc1ccc(Cn2cnc3c(-c4ccco4)ncnc32)cc1C | 169 to 170 °C
34 | COc1cc(NC(=O)OC(C)(C)C)c([N+](=O)[O-])cc1I | 171 °C
35 | NC(=O)N(O)CCNC(=O)c1cccc(OCc2ccccc2)c1 | 183 to 185 °C
36 | CCc1nc2c(-c3cc4cc(Br)oc4cc3C)ncnc2n1C(C1CC1)C1CC1 | 177 to 178 °C
37 | COc1ccc2cc(-c3cnc(-c4cn(Cc5ccccc5)c5ccccc45)o3)ccc2c1 | 198 to 199 °C
38 | Cc1ccc(C)c(-c2nsc3ccccc23)c1 | 87 °C
39 | COC(=O)C(=CNc1ccc(O)cc1C)C(=O)C=CC1=CCCC1 | 148 to 151 °C
40 | CC1(C)OC(=O)C(=CNc2ncnc3ccccc23)C(=O)O1 | 191 to 193 °C
41 | COC(=O)c1nc(-c2ccc(CF)cc2)cc(N)c1Cl | 95 to 97 °C
42 | CC1(C)OCCC(NC(=O)c2cnccc2C(F)(F)F)O1 (stereo unspecified) | 155 to 156 °C
43 | Cc1c(NC(=O)C(CS)CC(C)C)cccc1C(=O)O (stereo unspecified) | 166 to 168 °C
44 | CCNC(=O)Nc1nc2nc(NCCCN(C)C)ncc2cc1-c1c(C)cccc1C | 64 to 70 °C
45 | Nc1ccc(C(=O)O)cc1NCc1ccccc1Cl | 176 to 177 °C
46 | CCc1nnc2c(O)nc3cc(F)ccc3n12 | > 300 °C
47 | COc1cc(OC)nc(Sc2c([N+](=O)[O-])nc(C)n2C)n1 | 228 to 230 °C
48 | O=C(c1cccc(OCc2ccccc2)c1)C(CCc1nnn[nH]1)c1ccccc1 (stereo unspecified) | 136 to 138 °C

Row | SMILES | melting point
49 | CN(C)C1(c2cccc(F)c2)CCC2(OCCc3c2[nH]c2ccccc32)C(CNC(=O)C=Cc2cccc(-c3ccccc3)c2)C1 (stereo unspecified) | 134 to 140 °C
50 | Nc1nccnc1C(=O)N1CCCC1 | 100 to 105 °C
51 | COc1ccc(NCCCCNC(C)=O)c2c1C(=O)c1ccccc1C2=O | 151 to 153 °C
52 | O=C(C(CCO)N1CCCC1=O)N1CCOCC1 (stereo unspecified) | 105 to 106 °C
53 | CCOC(=O)C(=O)c1ccc(OCC(=O)c2c(C)cc(C)cc2C)cc1 | 68.5 to 70 °C
54 | Cc1cccc(CN(CCC(=O)O)c2nc(NC(=O)Nc3ccccc3O)nc(Nc3ccccc3-c3ccccc3)n2)c1 | 122 to 124 °C
55 | O=c1[nH]c2c(c3nc(-c4ccccc4)nn13)CN(Cc1ccccc1)CC2 | 257 to 259 °C
56 | CCCCc1nc2ccsc2n1Cc1ccc(-c2ccccc2C(=O)O)cc1 | 203 °C
57 | CN(C)NC(=O)c1sc(Nc2ccccc2)c2c1CCc1cnoc1-2 | 179 to 180 °C
58 | CC1(C)Oc2ccsc2C(NC(=O)c2cccnc2)C1O (stereo unspecified) | 248 to 249 °C
59 | CCCS(=O)(=O)N1CCC(c2nc3cc(-c4ccc(C(N)=O)c(F)c4)ccc3o2)CC1 | 222 to 225 °C
60 | S=C(NC1CCCCC1)N1CCc2[nH]cnc2C1 | 183 °C
61 | CCc1ccc2c(=O)c(CSC)cn(C)c2c1 | 104 to 106 °C
62 | COCCn1nc2c(N)nc3c(c2c1CC(C)(C)O)CCCC3 | 163 to 165 °C
63 | CC(C)CN1C(=O)CC(C)(C)CC1=O | 48 to 52 °C
64 | CC(C)N=C1C(c2ccccc2)=C(c2ccccc2)C(c2ccccc2)=C1c1ccccc1 | 223 °C
65 | O=C(O)C1(c2cn3nc(NCCCN4CCC(OC(c5ccccc5)c5ccccc5)CC4)ccc3n2)CC1 | 115 to 117 °C
66 | CC(C)(C)OC(=O)N1CCC(O)(CS(=O)(=O)NC(=O)c2cc(C(F)(F)F)cc(C(F)(F)F)c2)CC1 | 154 to 159 °C
67 | CC(C)n1nc(-c2c(-c3ccccc3)nn3cccc(O)c23)ccc1=O | 229 to 230 °C
68 | COc1ccc(-c2[nH]nc3c2C(=O)c2c(NC(=O)Cc4ccccc4OC)cccc2-3)cc1 | 255 °C
69 | O=c1cc(C(F)(F)F)cc(-c2ccc(C(F)(F)F)cc2)[nH]1 | 203 to 204 °C
70 | O=C1NC(=O)C(=Cc2cc(O)c(O)c([N+](=O)[O-])c2)C(=O)N1 | 269 to 272 °C
71 | CC1(C)CC(=O)c2c(NC3CC3)sc(-c3cc[nH]n3)c2C1 | 232 to 235 °C
72 | NS(=O)(=O)c1ccc(N2CCN(Cc3cn4ccccc4n3)CC2)cc1 | 238 to 242 °C

Row | SMILES | melting point
73 | CC1=NN(C(=O)NS(=O)(=O)N(C)S(=O)(=O)N(C)C)C(c2cccs2)C1 (stereo unspecified) | 112 to 113 °C
74 | O=[N+]([O-])c1ccc(C(O)c2ncco2)c(Cl)c1 (stereo unspecified) | 158 to 160 °C
75 | CC(C)(C)OC(=O)C[C@@H]1C[C@@H](COS(C)(=O)=O)NC1=O | 114 to 116 °C
76 | Nc1ncnc2c1ncn2C[C@@H]1O[C@H](CO)[C@@H](O)[C@@H]1O | 107 to 109 °C
77 | CS(=O)(=O)c1ccc(-c2cc(C(F)F)nn2-c2ccc(F)cc2)cc1F | 201 to 202 °C
78 | Cc1c(F)cccc1N1CC(C(=O)O)CC1=O (stereo unspecified) | 155 to 160 °C
79 | CN(C)Cc1ccc(CSCCNC(=NC(=O)CNN2C(=O)c3ccccc3C2=O)N(C)N=Cc2ccccc2)o1 | 115 °C
80 | Cc1noc(NS(=O)(=O)c2ccccc2-c2ccc(-c3ncco3)cc2CN(C)C(=O)c2ccc(Cl)cc2Cl)c1C | 134 to 142 °C
81 | Cc1nc2cccc(C(F)(F)F)c2c(=O)n1C1CCC(=O)NC1=O (stereo unspecified) | 268 to 270 °C
82 | CC1(C)Oc2cc3nonc3cc2C(N2CCC(O)C2=O)C1O (stereo unspecified) | 195 to 196 °C
83 | Cc1cccc(-c2nc(N)sc2-c2ccnc(-c3ccc(C(=O)NC4CCOCC4)cc3)c2)n1 | 230 to 232 °C
84 | CSc1ccc(-n2c(-c3ccc(F)cc3)nc(SC)c(C#N)c2=O)cc1 | 204 to 207 °C
85 | CC1CC2(C)C(CCC3C4CCC(C5(C)OCCO5)C4(C)CC(=O)C32)CC1=O (stereo unspecified) | 168 to 169 °C
86 | CCc1nc2cc(C(F)(F)F)c(Cl)cc2n1-c1ccc(CCOC(=O)NS(=O)(=O)c2cccc3c(N(C)C)cccc23)cc1 | 203 °C
87 | CCCCc1ncc(/C=C(\Cc2ccc(C)s2)c2nnn[nH]2)n1Cc1ccccc1Cl | 151 to 153 °C
88 | Cc1ccc2c(n1)C(C(N)=O)CCC2 (stereo unspecified) | 114 °C
89 | CCOC(=O)C=Cc1ccc(C#N)cc1 | 71 °C
90 | C=CCN1CC(C)N(C(c2cccc(O)c2)c2cc(C(=O)N(CC)CC)cs2)CC1C (stereo unspecified) | 108 to 112 °C
91 | CC(=O)OC1C(OC(=O)C=Cc2ccccc2)C=C(C)C(=O)CC1(C)C (stereo unspecified) | 138 to 139 °C
92 | C/C(=C\C=C\Cn1oc(=O)[nH]c1=O)c1cccc(OCc2nc(-c3ccccc3)oc2C)c1 | 117 to 118 °C
93 | O=c1cc(Sc2ccccc2)cc[nH]1 | 202 °C
94 | O[C@H]1COC(c2ccc3c(c2)OCO3)=N[C@@H]1c1ccccc1 (racemic) | 137 °C
95 | CSc1ccc(NC(=O)CN2CCN(CCSc3nc4ccccc4o3)CC2)c(C)n1 | 116 to 117 °C
96 | O=c1[nH]c(C2CC2)nc2c1cnn2-c1ncc(C(F)(F)F)cc1Cl | 239 °C
